Assay results: patent publication US20260365633A1, “Novel PEM Structures for SBX” (Roche Sequencing Solutions, Inc., priority 2023, published 2026)

Target: T1, C4760 DNA polymerase (a variant of DPO4) (Saccharolobus solfataricus, UniProt Q97W02, A155G/A42V/D156R/D292Y/D294N/E291S/E324K/E325K/E327K/E63R/E79L/G187P/G299W/I153V/I189F/I248T/I295S/K152A/K317Q/K321Q/K56Y/K78D/L293W/M76W/N188Y/P184Q/Q82W/Q83G/R300S/S297Y/S86E/T290K/T301W/V289W/V296Q)
T1 construct: Eco or Kod SSB in reaction as additive
T1 sequence (Q97W02 1-340 A155G/A42V/D156R/D292Y/D294N/E291S/E324K/E325K/E327K/E63R/E79L/G187P/G299W/I153V/I189F/I248T/I295S/K152A/K317Q/K321Q/K56Y/K78D/L293W/M76W/N188Y/P184Q/Q82W/Q83G/R300S/S297Y/S86E/T290K/T301W/V289W/V296Q): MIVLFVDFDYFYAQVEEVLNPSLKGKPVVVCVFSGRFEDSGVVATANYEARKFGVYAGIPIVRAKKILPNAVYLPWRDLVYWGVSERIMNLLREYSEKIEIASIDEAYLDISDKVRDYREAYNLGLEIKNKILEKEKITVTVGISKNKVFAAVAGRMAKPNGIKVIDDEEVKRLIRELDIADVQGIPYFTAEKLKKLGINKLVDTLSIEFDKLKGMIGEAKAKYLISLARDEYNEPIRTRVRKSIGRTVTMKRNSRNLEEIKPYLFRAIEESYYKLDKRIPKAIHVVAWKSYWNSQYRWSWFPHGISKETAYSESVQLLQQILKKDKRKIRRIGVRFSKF
Experiment: Primer extension on 411mer amplicon template with C4760 polymerase, gel
Format: biochemical, Sulfolobus solfataricus
Description: PEM activity of compound 15 was tested in primer extension assays using a 411mer amplicon template. Primer extension reactions included the following reagents: 50 Mm TrisCl, 200 Mm NH40ac, 20% PEG8K, 5% NMS, 3 nmol PP-60.20, 2 Mm MnCl2, 2 μg Kod single-strand binding protein (SSB), 1 M urea, 250 pmol each XNTP, 1 pmol template, 1 pmol [COMPOUND LEFT OUT] primer, 1.2 μg purified recombinant C4760 DNA polymerase (a variant of DPO4, see SEQ ID NO: 2), and 2 (lane 2) or 3 (lane 3) Mm PEM. 10 μL primer extension reactions were run for 20 minutes at 37 °C and reaction products were analyzed by gel electrophoresis. A representative gel showing primer extension products is presented in FIG. 12 (the position of a 277mer is indicated by the arrow). […] Remarkably, the polymerase is completely dependent upon the addition of PEM to the reaction in order to be capable of synthesizing these lengthy Xpandomer products. Even longer extension products may be obtained by optimizing various reaction parameters, e.g., extension time and/or concentrations of various additives.
PEM activity of compound 19, was tested in primer extension assays using the 411mer amplicon template. […] 10 μL primer extension reactions were run for 30 minutes at 37 °C and reaction products were analyzed by gel electrophoresis. […]

## CCOC(=O)c1cc(-c2cn(-c3ccc(O)c(C(=O)O)c3)nn2)nc(-c2cn(-c3ccc(O)c(C(=O)O)c3)nn2)c1 [Compound 15, 5,5′-((4-(ethoxycarbonyl)pyridine-2,6-diyl)bis(1H-1,2,3-triazole-4,1-diyl))bis(2-hydroxybenzoic acid)]
2 or 3 Mm PEM, 20 minutes at 37 °C, FIG. 12
  XNTP polymerization relative to compound 14: comparable to that of compound 14

## NC(=O)c1cc(-c2cn(-c3ccc(C(=O)O)c(O)c3)nn2)nc(-c2cn(-c3ccc(C(=O)O)c(O)c3)nn2)c1 [Compound 19, 4,4′-((4-carbamoylpyridine-2,6-diyl)bis(1H-1,2,3-triazole-4,1-diyl))bis(2-hydroxybenzoic acid)]
0.5, 1, or 1.5 Mm PEM, 30 minutes at 37 °C, FIG. 14
  XNTP polymerization relative to compound 14: less efficient than that of compound 14
